Measurements reported in patent publication US20250145637A1, “SULFONAMIDE DERIVATIVE, PREPARATION METHOD THEREFOR AND MEDICAL USE THEREOF” (Jiangsu Hengrui Pharmaceuticals Co. Ltd., priority 2021, published 2025).

How the values were obtained:
[1] = test system: H3K23 acetylation in U-2 OS cells; assay: U2OS cell H3K23 acetylation IF assay (immunofluorescence); assay type: cell-based; conditions: Homo sapiens; for IC50: 24 h incubation, read-out: H3K23 ac/IC50; for Emax: inhibition of H3K23 acetylation, 24 h, read-out: Maximum inhibition rate/Imax %
Method: Test Example 3: U2OS Cell H3K23 Acetylation IF Assay (Immunofluorescence)
(§1) I. Reagents and Instruments
• 1. U-2 OS (ATCC HTB-96) • 2. Recombinant anti-histone H3 (acetyl K23) antibody (Abcam, ab177275) • 3. Goat anti-rabbit IgG (H+L), Superclonal™ recombinant secondary antibody, Alexa Fluor 488 (Thermofisher, A27034) • 4. Hoechst 33342 (Sigma-Aldrich, B2261-25MG) • 5. Assay plate, 96-well, black with clear bottom (Corning, 3603) • 6. Bovine serum albumin (BSA) (Sangon Biotech, A500023-0100) • 7. Methanol (GENERAL-REAGENT, G75851D) • 8. Tween-20 (Sangon, A100777-0500) • 9. Triton X-100 (Solarbio, T8200) • 10. PBS (Shanghai BasalMedia Technologies Co., Ltd., B320KJ) • 11. 20×PBS buffer (Sangon Biotech, B548117-0500) • 12. McCoy's 5A medium (Gibco, 16600082) • 13. 0.25% trypsin-EDTA (1×) (Gibco, 25200-072) • 14. Pen strep (Gibco, 15140-122) • 15. DPBS (1×) (Gibco, 14190-144) • 16. FBS (Gibco, 10091148) • 17. Automatic cell counter (Countstar, IC1000) • 18. Thermostatic incubator (Thermo, 1160) • 19. ImageXpress® Micro Confocal (Molecular Device)
a. Blocking buffer: PBS (Shanghai BasalMedia)+BSA (final concentration of 1%)+Triton X-100 (final concentration of 0.5%).
b. Wash buffer: PBS (20×PBS was diluted to 1×PBS)+Tween-20 (final concentration of 0.1%).
c. Primary antibody solution: Recombinant anti-histone H3 (acetyl K23) antibody was diluted in blocking buffer at a ratio of 1:1000.
d. Secondary antibody solutions: Goat anti-rabbit IgG (H+L), Superclonal™ recombinant secondary antibody, Alexa Fluor 488 was diluted in blocking buffer at a ratio of 1:1000, and Hoechst 33342 was diluted in blocking buffer at a ratio of 1:5000.
e. Compounds: initial concentration of 100 μM, 3-fold dilution, 9 gradient concentrations. All compound concentrations were diluted 500-fold with McCoy's 5A medium for later use.
(§2) 2. Experimental Procedure
2.1. Cell Treatment (Day One)
a. The state of U-2 OS cells was observed under a microscope to make sure that the cell confluence was about 90%.
b. The cell supernatant was discarded. The cells were rinsed with DPBS once, and the DPBS was removed. The cells were digested with a proper amount of trypsin and left to stand at room temperature or 37° C. for 5 min.
c. The digestion was stopped with an equal volume of medium containing 10% FBS, and the cell suspension was collected and centrifuged at 300 g for 3 min. The cells were suspended in a proper amount of fresh medium.
(§3) d. The resulting cell suspension was collected and cell counting was performed.
e. The cell suspension was diluted and plated at 9000 cells/50 μL/well.
f. The wells on the periphery were blocked with 100 μL of PBS.
g. The cell culture plates were incubated overnight in a 37° C., 5% carbon dioxide incubator.
2.2. Compound Addition (Day Two)
a. 50 μL of diluted compound was added to the cell supernatant (50 μL/well) in each cell plate.
b. After the addition, the cell plates were incubated in a 37° C., 5% carbon dioxide incubator for 24 h.
2.3. Immunofluorescence Staining and Measurement (Day Three to Day Four)
a. After the 24-hour incubation, the cell plates were removed from the incubator. The medium was discarded, and plates were fixed with pre-cooled methanol at room temperature for 10 min.
b. The fixation buffer was discarded, and the plates were quickly washed with wash buffer 3 times and then slowly washed 3 times (5 min/wash).
c. The wash buffer was discarded, and blocking buffer was added. The plates were incubated at room temperature for 60 min.
d. The blocking buffer was discarded, and the prepared primary antibody solution was added. The plates were incubated overnight at 4° C.
e. The primary antibody solution was discarded, and the prepared secondary antibody solution was added. The plates were incubated at room temperature for 60 min.
f. The secondary antibody solution was discarded, and the plates were quickly washed with wash buffer 3 times and then slowly washed 5 times (5 min/wash).
g. The plates were tested on ImageXpress® Micro Confocal.
h. […]

human KAT6A = human KAT6A (Homo sapiens (Human), UniProt Q92794); assay: KAT6 enzyme activity assay (AlphaScreen method), KAT6A; assay type: biochemical; conditions: inhibition of the enzyme human KAT6A
Chain of human KAT6A (Q92794 whole entry): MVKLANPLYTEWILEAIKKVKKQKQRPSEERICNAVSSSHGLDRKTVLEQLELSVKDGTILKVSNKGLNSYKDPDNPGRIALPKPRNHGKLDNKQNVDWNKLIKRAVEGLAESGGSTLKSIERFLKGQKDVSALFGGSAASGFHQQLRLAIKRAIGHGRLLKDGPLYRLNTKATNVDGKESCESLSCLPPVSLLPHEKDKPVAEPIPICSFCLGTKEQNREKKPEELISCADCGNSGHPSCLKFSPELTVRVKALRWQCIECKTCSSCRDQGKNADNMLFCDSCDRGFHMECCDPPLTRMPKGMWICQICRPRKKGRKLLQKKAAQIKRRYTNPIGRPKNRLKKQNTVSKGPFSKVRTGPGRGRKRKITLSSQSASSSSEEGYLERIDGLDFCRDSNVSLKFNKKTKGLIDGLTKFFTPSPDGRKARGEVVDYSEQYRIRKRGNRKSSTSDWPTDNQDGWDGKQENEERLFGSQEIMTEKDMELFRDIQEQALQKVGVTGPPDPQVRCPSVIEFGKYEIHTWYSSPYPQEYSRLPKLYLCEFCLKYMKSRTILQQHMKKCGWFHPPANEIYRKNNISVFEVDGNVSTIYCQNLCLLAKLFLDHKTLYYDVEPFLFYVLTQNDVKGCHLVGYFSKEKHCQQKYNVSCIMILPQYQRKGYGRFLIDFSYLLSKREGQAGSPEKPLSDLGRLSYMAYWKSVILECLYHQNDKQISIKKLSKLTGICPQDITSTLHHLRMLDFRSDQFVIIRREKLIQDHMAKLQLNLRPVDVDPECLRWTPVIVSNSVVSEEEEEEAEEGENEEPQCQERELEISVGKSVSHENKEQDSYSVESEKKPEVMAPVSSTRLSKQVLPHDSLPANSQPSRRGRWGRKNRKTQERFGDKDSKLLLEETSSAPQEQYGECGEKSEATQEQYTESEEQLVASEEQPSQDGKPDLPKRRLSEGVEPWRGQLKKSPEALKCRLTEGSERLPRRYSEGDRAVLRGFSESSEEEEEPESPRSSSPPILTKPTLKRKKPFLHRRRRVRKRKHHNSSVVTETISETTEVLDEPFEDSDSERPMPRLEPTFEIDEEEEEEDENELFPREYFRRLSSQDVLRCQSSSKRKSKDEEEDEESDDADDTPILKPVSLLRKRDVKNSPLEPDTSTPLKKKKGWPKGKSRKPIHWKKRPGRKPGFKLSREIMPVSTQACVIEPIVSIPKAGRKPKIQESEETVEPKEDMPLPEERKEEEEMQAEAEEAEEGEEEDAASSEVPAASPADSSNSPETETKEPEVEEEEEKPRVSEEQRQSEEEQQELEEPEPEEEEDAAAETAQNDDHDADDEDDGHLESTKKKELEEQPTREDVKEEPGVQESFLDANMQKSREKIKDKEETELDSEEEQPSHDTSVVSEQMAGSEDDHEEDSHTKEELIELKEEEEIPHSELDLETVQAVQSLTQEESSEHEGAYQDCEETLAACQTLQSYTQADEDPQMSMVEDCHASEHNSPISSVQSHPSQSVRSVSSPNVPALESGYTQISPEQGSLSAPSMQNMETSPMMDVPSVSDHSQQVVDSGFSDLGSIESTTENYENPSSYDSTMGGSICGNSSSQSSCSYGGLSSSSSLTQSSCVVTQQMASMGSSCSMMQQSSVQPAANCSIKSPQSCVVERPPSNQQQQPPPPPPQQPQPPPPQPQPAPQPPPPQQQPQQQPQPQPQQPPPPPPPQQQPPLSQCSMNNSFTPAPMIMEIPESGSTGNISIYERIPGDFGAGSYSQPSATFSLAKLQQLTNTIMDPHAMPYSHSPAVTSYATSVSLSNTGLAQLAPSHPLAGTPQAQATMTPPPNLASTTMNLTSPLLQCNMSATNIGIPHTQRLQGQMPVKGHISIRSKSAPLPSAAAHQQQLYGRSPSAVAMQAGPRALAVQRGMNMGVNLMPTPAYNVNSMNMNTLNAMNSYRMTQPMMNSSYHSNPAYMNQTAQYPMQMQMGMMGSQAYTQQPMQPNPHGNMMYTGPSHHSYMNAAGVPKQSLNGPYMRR
Text: Test Example 1: KAT6 Enzyme Activity Assay (AlphaScreen Method)
I. Reagents and instrument • 1. KAT6A (customized by Chempartner) • 2. Ovalbumin (Sigma-Aldrich, A5378-5G) • 3. 2 M Tris-HCl solution, pH 7.8, sterile (Sangon, B548140-0500) • 4. 5 M NaCl solution (Sangon, B548121-0100) • 5. EDTA (0.5 M), pH 8.0, RNase-free (Thermofisher, AM9260G) • 6. Tween-20 (Sangon, A100777-0500) • 7. DTT, 1 M (Invitrogen, P2325) • 8. Acetyl coenzyme A (Ac-CoA, CAYMAN, Cat. No. 16160) • 9. Recombinant histone H3.1 biotinylated (human) (Active Motif 31696) • 10. 384-well plate, light gray (Perkin Elmer, Cat. No. 6005350) • 11. Anacardic acid (MCE, Cat. No. HY—N2020) • 12. AlphaScreen streptavidin donor beads, 5 mg (PerkinElmer, 6760002) • 13. AlphaScreen protein A acceptor beads, 5 mg (PerkinElmer, 6760137M) • 14. Acetylated-lysine antibody #9441 (CST 9441S) • 15. PHERA star microplate reader (BMG labtech) • II. Experimental method
a. 1× assay buffer: 100 mM Tris-HCl, pH 7.8; 15 mM NaCl; 1 mM EDTA; 0.01% tween-20; 1 mM DTT; 0.01% m/v ovalbumin.
b. KAT enzyme solution: 1.25 nM (final concentration), prepared in 1× assay buffer.
c. Mixed substrate of Ac-CoA and H3: a mixed substrate of 1000 nM (final concentration) Ac-CoA and 55 nM (final concentration) H3, prepared in 1× assay buffer.
d. Compounds: initial concentration of 100 μM, 3-fold dilution, 10 gradient concentrations. All compound concentrations were diluted 83-fold with 1× assay buffer for later use.
e. Assay reagent: 8 ng/μL (final concentration) AlphaScreen protein A acceptor beads, 8 ng/μL AlphaScreen streptavidin donor beads, 1:1500 diluted acetylated-lysine antibody, and 100 μM anacardic acid; prepared in 1× assay buffer.
as §2
a. The prepared enzyme solution was added to a 384-well plate at 3 μL/well, and 3 μL of 1× assay buffer was added to each well in columns 23 and 24 (Min).
b. 3 μL of compound solution was added to each well, and 3 μL of buffer was added to each Min well; 3 μL of DMSO solution was added to each well in columns 1 and 2 (Max) as controls. The plate was centrifuged, shaken for 2 min, and incubated at room temperature for 15 min.
c. The mixed substrate of Ac-CoA and H3 was added at 6 μL/well, and the plate was centrifuged, shaken for 2 min, and incubated at room temperature for 20 min.
d. The assay reagent was added at 6 μL/well, and the plate was centrifuged, shaken for 2 min, and incubated in the dark at room temperature for 120 min.
e. Plate reading was performed on the microplate reader, and AlphaScreen counts were recorded.
f. Plotting was performed using the Graphpad software, and the IC50 values of the compounds were calculated.

ZR-75-1 = ZR-75-1 proliferation assay (CellTiter-Glo, day 14); assay type: cell-based; conditions: Homo sapiens, 336 h, CTG assay day 14
Text: Test Example 4: ZR-75-1 Proliferation Assay
as §1
• 1. ZR-75-1 (ATCC CRL1500) • 2. 1640 medium (Gibco, 22400-089) • 3. 0.25% trypsin-EDTA (1×) (Gibco, 25200-072) • 4. Penicillin-streptomycin (Gibco, 15140-122) • 5. DPBS (1×) (Gibco, 14190-144) • 6. FBS (Gibco, 10091148) • 7. Assay plate, 96-well, black with clear bottom (Corning, 3603) • 8. 96-well non-treated round-bottom plate (JET BIOFIL, TCP-002-096) • 9. CellTiter-Glo buffer (Promega, G756B) • 10. CellTiter-Glo substrate (Promega, G755B) • 11. Automatic cell counter (Countstar, IC1000) • 12. Thermostatic incubator (Thermo, 1160) • 13. PHERAstar FS (BMG labtech, PHERAstar FS)
a. The state of cells was observed under a microscope to make sure that the cell confluence was about 90%.
b. The cell supernatant was discarded. The cells were rinsed with DPBS once, and the DPBS was removed. The cells were digested with a proper amount of trypsin and left to stand at 37° C. for 5 min.
c. The digestion was stopped with an equal volume of 1640 medium containing 10% FBS, and the cell suspension was collected and centrifuged at 300 g for 3 min. The cells were suspended in a proper amount of fresh medium.
as §3
e. The cell suspension was diluted to 5×10^4/mL, 50 μL/well with 1640 medium containing 10% FBS. Each well contained 2500 ZR-75-1 cells.
f. The cell culture plates were incubated overnight in a 37° C., 5% carbon dioxide incubator.
2. Compound Addition (Day 1)
a. Each compound was serially diluted in DMSO to 9 concentration points (initial concentration of 100 μM, 3-fold dilution; the highest concentration of each compound may be adjusted depending on its IC50). For example, in a 96-well non-treated round-bottom plate, 3 μL of compound was serially diluted in 6 μL of DMSO.
b. Each concentration point of each compound was diluted 500-fold in the corresponding volume of 1640 medium.
c. 50 μL of diluted compound solution was added to the cell supernatant (50 μL/well) in each cell plate.
d. After the addition, the cell plates were incubated in a 37° C., 5% carbon dioxide incubator.
3. The Cells were Re-Digested and Plated, and the Compounds were Added (Day 7).
a. Six days after the addition, the compound-containing medium was discarded. Then the cells were rinsed with DPBS (150 μL/well), and the DPBS was immediately pipetted off.
b. The cells were digested with 50 μL of trypsin and left to stand at 37° C. for 3 min, and then the digestion was stopped with 1640 medium containing 10% FBS (150 μL/well).
c. The cells were well mixed using a pipette and re-plated at a ratio of 1:8; that is, 25 μL of cell suspension was pipetted into a new 96-well plate (25 μL of 1640 medium containing 10% FBS had been added to the new plate in advance).
d. Compound solution preparation and addition (50 μL/well) were performed according to steps a to c in 2.
e. After the addition, the cell plates were incubated in a 37° C., 5% carbon dioxide incubator.
a. CellTiter-Glo buffer and lyophilized CellTiter-Glo substrate were equilibrated to room temperature before use and were well mixed to prepare a 100-mL CellTiter-Glo reagent (or a prepared CellTiter-Glo reagent was removed from a −20° C. freezer and equilibrated to room temperature).
b. The plates to be tested were removed from the incubator and equilibrated to room temperature, and the CellTiter-Glo reagent was added at 50 μL/well.
c. The plates were shaken for 2 min so that the cells were completely lysed.
d. After the plates were left to stand at room temperature for 28 min and signals were stable, the plates were tested on PHERAstar FS.

IC50 [1] [nM] | IC50 (human KAT6A) [nM] | Compound | Emax [1] [%] | IC50 (ZR-75-1; ZR-75-1 proliferation) [nM] | Emax (ZR-75-1; inhibition of ZR-75-1 proliferation, read-out: Maximum inhibition rate/Imax %) [%]
1.5 | 4.2 | COc1ccccc1S(=O)(=O)Nc1noc2cc(Cn3cccn3)c3c(c12)OCCO3 [Compound 4, N-(5-((1H-pyrazol-1-yl)methyl)-2,3-dihydro-[1,4]dioxino[2′,3′:5,6]benzo[1,2-d]isoxazol-9-yl)-2-methoxybenzenesulfonamide] | 106 |  | 
 | 0.4 | COc1cc2c(cc1S(=O)(=O)Nc1noc3cc(Cn4cccn4)c4c(c13)OCCC4)CCC2 [Compound 6, N-(5-((1H-pyrazol-1-yl)methyl)-3,4-dihydro-2H-chromeno[8,7-d]isoxazol-9-yl)-6-methoxy-2,3-dihydro-1H-indene-5-sulfonamide] |  | 0.6 | 95.4
2.1 | 1.6 | COc1cc(N(C)C)ccc1S(=O)(=O)Nc1noc2cc(Cn3cccn3)c3c(c12)OCCC3 [Compound 11, N-(5-((1H-pyrazol-1-yl)methyl)-3,4-dihydro-2H-chromeno[8,7-d]isoxazol-9-yl)-4-(dimethylamino)-2-methoxybenzenesulfonamide] | 103 |  | 
2.9 | 4.7 | COc1cc(C)ccc1S(=O)(=O)Nc1noc2cc(Cn3cccn3)c3c(c12)OCC3 [Compound 22, N-(4-((1H-pyrazol-1-yl)methyl)-2,3-dihydrobenzofuro[7,6-d]isoxazol-8-yl)-2-methoxy-4-methylbenzenesulfonamide] | 105 |  | 
